Where two headings read alike, the source gives them in different places. Marks after values point to notes of the source that are not given here.
[1] = Female, 4.69→ 2 mg/kg/wk, Day 15
[2] = female rats, 4.69→2 mg/kg/wk, Day 15
[3] = female rats, Group 3, 3.75/2.5 mg/kg/wk oral, Day 15
[4] = female rats, Group 4, 4.69/2 mg/kg/wk oral, Day 15
[5] = male rats, 4.69→2 mg/kg/wk, Day 15, 2 animals
[6] = male rats, Group 2, 3 mg/kg/wk, Day 15

For `CCC1(O)C(=O)OCc2c1cc1n(c2=O)Cc2cc3cc4c(cc3nc2-1)OCO4` (centres unmarked) [FL118], the “decrease of body weight, males, Day 14” value (3 mg/kg/wk) was 18.15%, the “decrease of body weight, males, Day 14” value (3.75→2.5 mg/kg/wk) was 17.41% and the mortality (4.69 (day 1) and 2 mg/kg/wk (day 8)) was “two male mice died on day 6 and day 12”. For the same molecule, the “decrease of body weight, males, Day 14” value (4.69→2 mg/kg/wk) was 47.53%, the “#LYMP, percent difference in mean values from concurrent controls” value [1] was −37.76% and the “WBC, percent difference in mean values from concurrent controls” value (shortened to “WBC, percent difference in mean values”) [1] was −33.69%. For the same molecule, the “WBC, percent difference in mean values” value (Male, 3 mg/kg/wk, Day 15) was −16.11%, the “WBC, percent difference in mean values” value (Male, 3.75→ 2.5 mg/kg/wk, Day 15) was −11.98% and the “#LYMP, percent difference in mean values from concurrent controls” value (Male, 4.69→ 2 mg/kg/wk, Day 15) was −57.17%. For the same molecule, the “WBC, percent difference in mean values” value (Male, 4.69→ 2 mg/kg/wk, Day 15) was −52.17%, the “ALT, percent difference in mean values from concurrent controls” value (“ALT, percent difference in mean values” below) [2] was 122% and the “sGLU, percent difference in mean values from concurrent controls” value [2] was −19.47%. The “#BASO, basophils, absolute, Mean” value [3] was 0.01 10^3/μL, the “#EOS, eosinophils, absolute, Mean” value [3] was 0.07 10^3/μL and the “#LYMP, lymphocytes, absolute, Mean” value [3] was 5.87 10^3/μL. The “#MONO, monocytes, absolute, Mean” value [3] was 0.17 10^3/μL, the “#NEUT, neutrophils, absolute, Mean” value [3] was 0.87 10^3/μL and the “% BASO, basophils, percent, Mean” value [3] was 0.2%. The “% EOS, eosinophils, percent, Mean” value [3] was 1.0%, the “% LYMP, lymphocytes, percent, Mean” value [3] was 83.5% and the “% MONO, monocytes, percent, Mean” value [3] was 2.4%. For the same molecule, the “% NEUT, neutrophils, percent, Mean” value [3] was 12.1%, the “% RET, reticulocytes, percent, Mean” value [3] was 5.05% and the “ALB, albumin, Mean” value [3] was 37.5 g/L. The “ALP, alkaline phosphatase, Mean” value [3] was 83 U/L, the “ALT, alanine aminotransferase, Mean” value [3] was 33 U/L and the “AST, aspartate aminotransferase, Mean” value [3] was 89 U/L. The “BIL-T, total bilirubin, Mean” value [3] was 1.59 µmol/L, the “CK, creatine kinase, Mean” value [3] was 247 U/L and the “CRE, creatinine, Mean” value [3] was 24 µmol/L. For the same molecule, the “Ca, calcium, Mean” value [3] was 2.42 mmol/L, the “GLB, globulin, Mean” value [3] was 23.0 g/L and the “HCT, hematocrit, Mean” value [3] was 19.8%. For the same molecule, the “HGB, hemoglobin, Mean” value [3] was 13.2 g/dL, the “K, potassium, Mean” value [3] was 4.3 mmol/L and the “MCH, mean corpuscular hemoglobin, Mean” value [3] was 19.3 pg. For the same molecule, the “MCHC, mean corpuscular hemoglobin concentration, Mean” value [3] was 33.3 g/dL, the “MCV, mean corpuscular volume, Mean” value [3] was 58.0 fL and the “MPV, mean platelet volume, Mean” value [3] was 6.8 fL. For the same molecule, the “Na, sodium, Mean” value [3] was 142 mmol/L, the “P, inorganic phosphorus, Mean” value [3] was 2.20 mmol/L and the “PLT, platelet count, Mean” value [3] was 1295 10^3/μL. The “RBC, red blood cell, Mean” value [3] was 6.88 10^6/μL, the “RDW, RBC distribution width, Mean” value [3] was 12.9* % and the “TCHO, total cholesterol, Mean” value [3] was 1.70 mmol/L. For the same molecule, the “TG, triglyceride, Mean” value [3] was 0.26 mmol/L, the “UREA, urea, Mean” value [3] was 6.29 mmol/L and the “WBC, white blood cell, Mean” value [3] was 7.03 10^3/μL. The “sGLU, glucose, Mean” value [3] was 9.43 mmol/L, the “#BASO, basophils, absolute, Mean” value [4] was 0.01 10^3/μL and the “#EOS, eosinophils, absolute, Mean” value [4] was 0.05 10^3/μL. The “#LYMP, lymphocytes, absolute, Mean” value [4] was 4.03 10^3/μL, the “#MONO, monocytes, absolute, Mean” value [4] was 0.13 10^3/μL and the “#NEUT, neutrophils, absolute, Mean” value [4] was 0.62 10^3/μL. For the same molecule, the “% BASO, basophils, percent, Mean” value [4] was 0.1%, the “% EOS, eosinophils, percent, Mean” value [4] was 1.0% and the “% LYMP, lymphocytes, percent, Mean” value [4] was 82.7%. For the same molecule, the “% MONO, monocytes, percent, Mean” value [4] was 2.9%, the “% NEUT, neutrophils, percent, Mean” value [4] was 12.7% and the “% RET, reticulocytes, percent, Mean” value [4] was 4.79%. For the same molecule, the “ALB, albumin, Mean” value [4] was 36.6 g/L, the “ALP, alkaline phosphatase, Mean” value [4] was 88 U/L and the “ALT, alanine aminotransferase, Mean” value [4] was 75 U/L. The “AST, aspartate aminotransferase, Mean” value [4] was 222 U/L, the “BIL-T, total bilirubin, Mean” value [4] was 2.66 µmol/L and the “CK, creatine kinase, Mean” value [4] was 427 U/L. The “CRE, creatinine, Mean” value [4] was 24 µmol/L, the “Ca, calcium, Mean” value [4] was 2.37 mmol/L and the “GLB, globulin, Mean” value [4] was 22.0 g/L. For the same molecule, the “HCT, hematocrit, Mean” value [4] was 40.0%, the “HGB, hemoglobin, Mean” value [4] was 13.6 g/dL and the “K, potassium, Mean” value [4] was 4.6 mmol/L. For the same molecule, the “MCH, mean corpuscular hemoglobin, Mean” value [4] was 19.6 pg, the “MCHC, mean corpuscular hemoglobin concentration, Mean” value [4] was 33.8 g/dL and the “MCV, mean corpuscular volume, Mean” value [4] was 57.8 fL. For the same molecule, the “MPV, mean platelet volume, Mean” value [4] was 6.7 fL, the “Na, sodium, Mean” value [4] was 142 mmol/L and the “P, inorganic phosphorus, Mean” value [4] was 1.92 mmol/L. The “PLT, platelet count, Mean” value [4] was 1278 10^3/μL, the “RBC, red blood cell, Mean” value [4] was 6.94 10^6/μL and the “RDW, RBC distribution width, Mean” value [4] was 13.7* %. For the same molecule, the “TCHO, total cholesterol, Mean” value [4] was 1.37 mmol/L, the “TG, triglyceride, Mean” value [4] was 0.29 mmol/L and the “TP, total protein, Mean” value [4] was 58.5 g/L. The “UREA, urea, Mean” value [4] was 9.54 mmol/L, the “WBC, white blood cell, Mean” value [4] was 4.85 10^3/μL and the “sGLU, glucose, Mean” value [4] was 8.25 mmol/L. The “ALT, percent difference in mean values” value (male rats, 3 mg/kg/wk, Day 15) was 19%, the “ALT, percent difference in mean values” value (male rats, 3.75→2.5 mg/kg/wk, Day 15) was 34% and the “ALT, percent difference in mean values” value [5] was 275%. The “sGLU, percent difference in mean values from concurrent controls” value [5] was −59.96%, the “#BASO Mean” value [6] was 0.02 10^3/μL and the “#EOS Mean” value [6] was 0.06 10^3/μL. The “#LYMP Mean” value [6] was 7.94 10^3/μL, the “#MONO Mean” value [6] was 0.21 10^3/μL and the “#NEUT Mean” value [6] was 0.72 10^3/μL. For the same molecule, the “#RET Mean” value [6] was 337.2 10^9/L, the “% BASO Mean” value [6] was 0.2% and the “% EOS Mean” value [6] was 0.7%. The “% LYMP Mean” value [6] was 88.2%, the “% MONO Mean” value [6] was 2.5% and the “% NEUT Mean” value [6] was 7.9%. For the same molecule, the “% RET Mean” value [6] was 4.68%, the “HCT Mean” value [6] was 42.1* % and the “MCH Mean” value [6] was 19.2 pg. For the same molecule, the “MCHC Mean” value [6] was 32.8 g/dL, the “MCV Mean” value [6] was 58.3 fL and the “MPV Mean” value [6] was 6.6 fL. For the same molecule, the “PLT Mean” value [6] was 1172 10^3/μL, the “RBC Mean” value [6] was 7.22 10^6/μL and the “RDW Mean” value [6] was 13.5** %. The “WBC Mean” value [6] was 9.01 10^3/μL and the “#BASO % Diff” value (male rats, Group 2, 3 mg/kg/wk, Day 15, vs Group 1) was −25.00%.

— US20250312469A1 (CANGET BIOTEKPHARMA, priority 2024, published 2025)
